Data as given in US11034698B2, “Pyrazolo[ 1,5a]pyrimidine derivatives as IRAK4 modulators” (priority 2017, dated 2021).

Biological target: human IRAK4 (Homo sapiens (Human), UniProt Q9NWZ3)
Assay: IRAK4 kinase inhibition, Transcreener fluorescence polarization (ADP)
Type: biochemical
Conditions: recombinant full-length His6-IRAK4 1.25 nM; 125 uM ATP; 125 uM peptide; 90 min; ATP Km 642 uM; read-out: IRAK4 Ki
In short: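 The enzyme was full-length human IRAK4 with an N-terminal His6 tag, expressed in insect cells. Kinase activity was read as ADP product by Transcreener fluorescence polarization.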

human IRAK4, sequence (Q9NWZ3 whole entry): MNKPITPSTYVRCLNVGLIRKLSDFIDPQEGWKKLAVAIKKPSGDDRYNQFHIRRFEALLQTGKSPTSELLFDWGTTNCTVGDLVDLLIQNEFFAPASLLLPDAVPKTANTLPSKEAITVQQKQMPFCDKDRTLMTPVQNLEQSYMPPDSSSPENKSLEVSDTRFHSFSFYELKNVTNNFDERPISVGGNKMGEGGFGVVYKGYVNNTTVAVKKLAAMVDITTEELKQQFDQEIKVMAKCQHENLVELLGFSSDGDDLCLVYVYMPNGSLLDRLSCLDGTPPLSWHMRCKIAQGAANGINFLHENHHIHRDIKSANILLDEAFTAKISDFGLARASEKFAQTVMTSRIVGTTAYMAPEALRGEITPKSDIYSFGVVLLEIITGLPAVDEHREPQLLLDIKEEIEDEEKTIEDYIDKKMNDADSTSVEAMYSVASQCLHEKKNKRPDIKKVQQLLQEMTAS

Row | Structure (SMILES) | Ki [nM]
1 | CC(C)(O)[C@H](F)CN1Cc2cc(NC(=O)c3cnn4cccnc34)c(N3CCC(CC(F)F)CC3)cc2C1=O [Example 96, (R)-N-(6-(4-(2,2-Difluoroethyl)piperidin-1-yl)-2-(2-fluoro-3-hydroxy-3-methylbutyl)-1-oxoisoindolin-5-yl)pyrazolo[1,5-a]pyrimidine-3-carboxamide] | 1.5
2 | CC(C)N1Cc2cc(NC(=O)c3cnn4cccnc34)c(C3CC3)cc2C1=O [Example 97, N-(6-Cyclopropyl-2-isopropyl-1-oxoisoindolin-5-yl)pyrazolo[1,5-a]pyrimidine-3-carboxamide] | 5.2
3 | CC(C)(O)[C@H](F)CN1Cc2cc(NC(=O)c3cnn4cccnc34)c(C#N)cc2C1=O [Example 98, (R)—N-(6-Cyano-2-(2-fluoro-3-hydroxy-3-methylbutyl)-1-oxoisoindolin-5-yl)pyrazolo[1,5-a]pyrimidine-3-carboxamide] | 8.5
4 | CC(C)(O)[C@H](F)CN1Cc2cc(NC(=O)c3cnn4cccnc34)c(N3CCN4CCC[C@@H]4C3)cc2C1=O [Example 100, N-(2-((R)-2-Fluoro-3-hydroxy-3-methylbutyl)-6-((R)-hexahydropyrrolo[1,2-a]pyrazin-2(1H)-yl)-1-oxoisoindolin-5-yl)pyrazolo[1,5-a]pyrimidine-3-carboxamide] | 1.8
5 | CO[C@@H]1C[C@H]2CN(c3cc4c(cc3NC(=O)c3cnn5cccnc35)CN(C[C@@H](F)C(C)(C)O)C4=O)CCN2C1 [Example 101, N-(2-((R)-2-Fluoro-3-hydroxy-3-methylbutyl)-6-((7R,8aS)-7-methoxyhexahydropyrrolo[1,2-a]pyrazin-2(1H)-yl)-1-oxoisoindolin-5-yl)pyrazolo[1,5-a]pyrimidine-3-carboxamide] | 12
6 | CC(C)(O)[C@H](F)CN1Cc2cc(NC(=O)c3cnn4ccc(Cl)nc34)c(N3CCOCC3)cc2C1=O [Example 102, (R)-5-Chloro-N-(2-(2-fluoro-3-hydroxy-3-methylbutyl)-6-morpholino-1-oxoisoindolin-5-yl)pyrazolo[1,5-a]pyrimidine-3-carboxamide] | 6.5
7 | CCc1oncc1CN1CCN(c2cc3c(cc2NC(=O)c2cnn4cccnc24)CN(C[C@@H](F)C(C)(C)O)C3=O)CC1 [Example 103, (R)-N-(6-(4-((5-Ethylisoxazol-4-yl)methyl)piperazin-1-yl)-2-(2-fluoro-3-hydroxy-3-methylbutyl)-1-oxoisoindolin-5-yl)pyrazolo[1,5-a]pyrimidine-3-carboxamide] | 5.4
8 | CCc1nocc1CN1CCN(c2cc3c(cc2NC(=O)c2cnn4cccnc24)CN(C[C@@H](F)C(C)(C)O)C3=O)CC1 [Example 104, (R)-N-(6-(4-((3-Ethylisoxazol-4-yl)methyl)piperazin-1-yl)-2-(2-fluoro-3-hydroxy-3-methylbutyl)-1-oxoisoindolin-5-yl)pyrazolo[1,5-a]pyrimidine-3-carboxamide] | 5
9 | CC(C)(O)[C@H](F)CN1Cc2cc(NC(=O)c3cnn4cccnc34)c(N3CCN(C4COC4)CC3)cc2C1=O [Example 105, (R)-N-(2-(2-Fluoro-3-hydroxy-3-methylbutyl)-6-(4-(oxetan-3-yl)piperazin-1-yl)-1-oxoisoindolin-5-yl)pyrazolo[1,5-a]pyrimidine-3-carboxamide] | 3.4
10 | CC(C)(O)[C@H](F)CN1Cc2cc(NC(=O)c3cnn4cccnc34)c(N3CCN(CCn4ccnc4)CC3)cc2C1=O [Example 106, (R)-N-(6-(4-(2-(1H-Imidazol-1-yl)ethyl)piperazin-1-yl)-2-(2-fluoro-3-hydroxy-3-methylbutyl)-1-oxoisoindolin-5-yl)pyrazolo[1,5-a]pyrimidine-3-carboxamide] | 2.1
11 | CO[C@@H]1C[C@@H]2CN(c3cc4c(cc3NC(=O)c3cnn5cccnc35)CN(C[C@@H](F)C(C)(C)O)C4=O)CCN2C1 [Example 107, N-(2-((R)-2-Fluoro-3-hydroxy-3-methylbutyl)-6-((7R,8aR)-7-methoxyhexahydropyrrolo[1,2-a]pyrazin-2(1H)-yl)-1-oxoisoindolin-5-yl)pyrazolo[1,5-a]pyrimidine-3-carboxamide] | 6.5
12 | CO[C@H]1C[C@@H]2CN(c3cc4c(cc3NC(=O)c3cnn5cccnc35)CN(C[C@@H](F)C(C)(C)O)C4=O)CCN2C1 [Example 108, N-(2-((R)-2-Fluoro-3-hydroxy-3-methylbutyl)-6-((7S,8aR)-7-methoxyhexahydropyrrolo[1,2-a]pyrazin-2(1H)-yl)-1-oxoisoindolin-5-yl)pyrazolo[1,5-a]pyrimidine-3-carboxamide] | 1.3
13 | CC(C)(O)[C@H](F)CN1Cc2cc(NC(=O)c3cnn4cccnc34)c(N3CCN(CC(F)(F)F)CC3)cc2C1=O [Example 109, (R)-N-(2-(2-Fluoro-3-hydroxy-3-methylbutyl)-1-oxo-6-(4-(2,2,2-trifluoroethyl)piperazin-1-yl)isoindolin-5-yl)pyrazolo[1,5-a]pyrimidine-3-carboxamide] | 2.6
14 | C[C@H]1C[C@@H]2CN(c3cc4c(cc3NC(=O)c3cnn5cccnc35)CN(C[C@@H](F)C(C)(C)O)C4=O)CCN2C1 [Example 110, N-[6-[(7S,8aR)-7-Methyl-3,4,6,7,8,8a-hexahydro-1H-pyrrolo[1,2-a]pyrazin-2-yl]-2-[(2R)-2-fluoro-3-hydroxy-3-methyl-butyl]-1-oxo-isoindolin-5-yl]pyrazolo[1,5-a]pyrimidine-3-carboxamide] | 7.5
15 | COCCN1CCN(c2cc3c(cc2NC(=O)c2cnn4cccnc24)CN(C[C@@H](F)C(C)(C)O)C3=O)CC1 [Example 112, (R)-N-(2-(2-Fluoro-3-hydroxy-3-methylbutyl)-6-(4-(2-methoxyethyl)piperazin-1-yl)-1-oxoisoindolin-5-yl)pyrazolo[1,5-a]pyrimidine-3-carboxamide] | 2.6
16 | CC(C)N1CCN(c2cc3c(cc2NC(=O)c2cnn4cccnc24)CN(C[C@@H](F)C(C)(C)O)C3=O)CC1 [Example 113, (R)-N-(2-(2-Fluoro-3-hydroxy-3-methylbutyl)-6-(4-isopropylpiperazin-1-yl)-1-oxoisoindolin-5-yl)pyrazolo[1,5-a]pyrimidine-3-carboxamide] | 7.5
17 | CC(=O)Nc1ccn2ncc(C(=O)Nc3cc4c(cc3N(C)C)C(=O)N(C[C@@H](F)C(C)(C)O)C4)c2n1 [Example 131, (R)-5-Acetamido-N-(6-(dimethylamino)-2-(2-fluoro-3-hydroxy-3-methylbutyl)-1-oxoisoindolin-5-yl)pyrazolo[1,5-a]pyrimidine-3-carboxamide] | 6.4
18 | CN(C)c1cc2c(cc1NC(=O)c1cnn3ccc(C(=O)NC4CC4)nc13)CN(C[C@@H](F)C(C)(C)O)C2=O [Example 132, (R)—N^5-Cyclopropyl-N^3-(6-(dimethylamino)-2-(2-fluoro-3-hydroxy-3-methylbutyl)-1-oxoisoindolin-5-yl)pyrazolo[1,5-a]pyrimidine-3,5-dicarboxamide] | 19
19 | CC(C)(O)[C@H](F)CN1Cc2cc(NC(=O)c3cnn4cc(O)cnc34)c(N3CCOCC3)cc2C1=O [Example 133, (R)—N-(2-(2-Fluoro-3-hydroxy-3-methylbutyl)-6-morpholino-1-oxoisoindolin-5-yl)-6-hydroxypyrazolo[1,5-a]pyrimidine-3-carboxamide] | 5.7
20 | CC(C)(O)[C@H](F)CN1Cc2cc(NC(=O)c3cnn4cccnc34)c(OCC(F)(F)F)cc2C1=O [Example 135, (R)—N-(2-(2-Fluoro-3-hydroxy-3-methylbutyl)-1-oxo-6-(2,2,2-trifluoroethoxy)isoindolin-5-yl)pyrazolo[1,5-a]pyrimidine-3-carboxamide] | 0.63
21 | Cc1ccc(-c2cc3c(cc2NC(=O)c2cnn4cccnc24)CC(C)(C)O3)nc1 [Example 145, N-[2,2-Dimethyl-6-(5-methyl-2-pyridyl)-3H-benzofuran-5-yl]pyrazolo[1,5-a]pyrimidine-3-carboxamide] | 60
22 | Cc1ccc(-c2cc3c(cc2NC(=O)c2cnn4cccnc24)CN(C[C@@H](F)C(C)(C)O)C3=O)nc1 [Example 146, (R)-N-(2-(2-Fluoro-3-hydroxy-3-methylbutyl)-6-(5-methylpyridin-2-yl)-1-oxoisoindolin-5-yl)pyrazolo[1,5-a]pyrimidine-3-carboxamide] | 8.1
23 | CC(C)(O)[C@H](F)CN1Cc2cc(NC(=O)c3cnn4cccnc34)c(C3COC3)cc2C1=O [Example 147, N-[2-[(2R)-2-Fluoro-3-hydroxy-3-methyl-butyl]-6-(oxetan-3-yl)-1-oxo-isoindolin-5-yl]pyrazolo[1,5-a]pyrimidine-3-carboxamide] | 48
24 | CC(C)(O)c1cc2c(cc1NC(=O)c1cnn3cccnc13)CN(C[C@@H](F)C(C)(C)O)C2=O [Example 148, (R)—N-(2-(2-Fluoro-3-hydroxy-3-methylbutyl)-6-(2-hydroxypropan-2-yl)-1-oxoisoindolin-5-yl)pyrazolo[1,5-a]pyrimidine-3-carboxamide] | 16
25 | CC(C)N1Cc2cc(NC(=O)c3cnn4cccnc34)c(N(C)C)c(CO)c2C1=O [Example 151, N-(6-(Dimethylamino)-7-(hydroxymethyl)-2-isopropyl-1-oxoisoindolin-5-yl)pyrazolo[1,5-a]pyrimidine-3-carboxamide] | 8.2
26 | Cn1ccc2cc(NC(=O)c3cnn4cccnc34)c(N3CCOCC3)cc2c1=O [Example 152, N-(2-Methyl-7-morpholino-1-oxo-1,2-dihydroisoquinolin-6-yl)pyrazolo[1,5-a]pyrimidine-3-carboxamide] | 210
27 | O=C(Nc1cc2c(cc1N1CCOCC1)OCCS2)c1cnn2cccnc12 [Example 153, N-(7-Morpholino-2,3-dihydro-1,4-benzoxathiin-6-yl)pyrazolo[1,5-a]pyrimidine-3-carboxamide] | 280
28 | CN(C)c1cc2c(cc1NC(=O)c1cnn3cccnc13)CC(C)(C)[C@H]2O [Example 156, N-[(1R)-6-(Dimethylamino)-1-hydroxy-2,2-dimethyl-indan-5-yl]pyrazolo[1,5-a]pyrimidine-3-carboxamide] | 16
